Measured values as given in US8946260B2, “17α-hydroxylase/C17,20-lyase inhibitors” (Novartis AG, priority 2010, dated 2015).

Biological target: T1, recombinant Human CYP17 enzyme (17-20 lyase) (Homo sapiens, UniProt P05093)
T1 construct: made in house; host or cells: A549 cells, adenoviral expression system; purified cell membrane preparations
T1 sequence (P05093 1-508): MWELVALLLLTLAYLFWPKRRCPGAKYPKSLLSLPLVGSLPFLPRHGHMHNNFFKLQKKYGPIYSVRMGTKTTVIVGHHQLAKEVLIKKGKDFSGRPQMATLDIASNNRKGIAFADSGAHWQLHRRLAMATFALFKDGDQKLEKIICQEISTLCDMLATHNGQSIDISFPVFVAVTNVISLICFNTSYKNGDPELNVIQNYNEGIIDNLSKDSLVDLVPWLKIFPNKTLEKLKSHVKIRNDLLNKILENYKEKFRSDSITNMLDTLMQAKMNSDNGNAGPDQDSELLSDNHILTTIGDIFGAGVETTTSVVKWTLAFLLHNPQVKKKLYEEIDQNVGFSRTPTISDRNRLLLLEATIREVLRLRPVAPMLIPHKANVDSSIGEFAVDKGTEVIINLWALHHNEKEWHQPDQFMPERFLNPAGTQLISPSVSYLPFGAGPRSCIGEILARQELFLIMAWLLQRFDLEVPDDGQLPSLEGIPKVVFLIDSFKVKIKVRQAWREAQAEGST
Test: Cytochrome P450, 17-20 lyase (CYP17-lyase) assay, 17-α-hydroxy pregnenolone [21-3H] as substrate
Assay type: biochemical
Settings: for IC50: human CYP17 lyase, substrate 0.25 μM, room temperature, 90 minutes, read-out: Lyase IC 50 nM Human; for inhibition at 10 µM: read-out: hCYP17 Lyase % Inh
Procedure, shortened: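 A549 membrane preparations expressing adenovirally delivered human CYP17 (16 μg) incubated 90 min at room temperature with 0.25 μM 17α-hydroxy pregnenolone [21-3H] and 4.2 mM NADPH in 50 mM phosphate pH 7.5. Released tritiated acetic acid counted after charcoal removal of steroids; IC50 from sigmoidal fit of % inhibition.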

IC50 [nM]	inhibition at 10 µM [%]	SMILES
211	–	Cc1ccncc1N1CCc2c(sc3ccc(F)cc23)C1=O [Example 45A, 6-Fluoro-2-(4-methyl-pyridin-3-yl)-3,4-dihydro-2H-benzo[4,5]thieno[2,3-c]pyridin-1-one]
15	–	CC1Cc2ccc(C(F)(F)F)cc2C(=O)N1c1cccnc1 (stereo not shown) [Example 43A, 3-Methyl-2-pyridin-3-yl-7-trifluoromethyl-3,4-dihydro-2H-isoquinolin-1-one]
–	48	O=C1c2sccc2CCN1c1cccnc1 [Example 6A, 6-Pyridin-3-yl-5,6-dihydro-4H-thieno[2,3-c]pyridin-7-one]
–	12	COc1cc2c(cc1OC)C(=O)N(c1cnccc1C)CC2 [Example 40A, 6,7-Dimethoxy-2-(4-methyl-pyridin-3-yl)-3,4-dihydro-2H-isoquinolin-1-one]
